Assay results from US20250281629A1, “COMPOSITIONS AND METHODS FOR ANTI-PHOSPHOCHOLINE ACTIVE IMMUNOTHERAPY” (Duke University, priority 2022, published 2025).
Where no end group is shown, it is not given here. C11H22NO6P = phosphorylcholine group attached via 2-methacryloyloxyethyl phosphorylcholine

Experiments:
macrophages (F4/80+) = assay: Nanofiber uptake in i.p. lavage cells, flow cytometry: macrophages; format: in vivo, mouse; details: 4 hours after i.p. injection of TAMRA-labeled nanofibers
Experimental: (§1) Nanofiber Uptake and Evaluation. The cell types present and their propensity to uptake nanofibers in the i.p. space was tested by injecting mice i.p. with 100 μL of 2 mM TAMRA-labeled fluorescent nanofibers. 4 hours later, mice were euthanized and i.p. lavage was conducted via the injection of 2 mL of cold 1×PBS into the peritoneal cavity and massaging the abdomen for 30 seconds. The solution was then carefully extracted from the i.p. space and the cells were isolated followed by rinsing with ice cold flow buffer (2% heat-inactivated FBS in 1×PBS). The cells present were treated with mouse BD Fc Block (Clone: 2.4G2) (BD Biosciences, 553142) in flow buffer on ice for 30 min and then washed and stained with antibodies against the following markers: CD5-APC (Clone: 53-7.3) (BioLegend, 100626), F4/80-PerCP/Cy5.5 (Clone: BM8) (BioLegend, 123128), CD19-APC/Cy7 (Clone: 6D5) (BioLegend, 115530), CD11c-PE/Cy7 (Clone: N418) (BioLegend, 117318), and CD86-BV605 (Clone: GL1) (BD Biosciences, 2272591) in flow buffer for 30 min on ice. TAMRA-fluorescence as an indication of nanofiber uptake was measured on the PE channel. Cells were then washed in flow buffer and stained with DAPI. Flow cytometry was conducted on a BD FACSCanto II cytometer and the results were analyzed using FlowJo software.

[1] = Thioflavin T (ThT) assay for β-sheets; format: physicochemical; details: peak fluorescence intensity around 488 nm
Experimental: Thioflavin T (ThT) Assay. β-sheets were detected by Thioflavin T (ThT) (Alfa Aesar, J61043) binding and resulting fluorescence. 180 μL of 0.05 mM ThT was added to 20 μL of 2 mM nanofibers in a 96-well black plate and allowed to incubate for 1 min. Fluorescence intensity was then determined using an excitation wavelength of 440 nm and emission wavelengths from 460-600 nm at 5 nm intervals. A peak fluorescence intensity at an emission wavelength around 488 nm is indicative of β-sheets.

[2] = system: dendritic cells (F4/80−CD11c+); assay: Nanofiber uptake in i.p. lavage cells, flow cytometry: dendritic cells; format: in vivo, mouse; details: 4 hours after i.p. injection of TAMRA-labeled nanofibers
Experimental: as §1

B1a cells (CD19+CD5+) = assay: Nanofiber uptake in i.p. lavage cells, flow cytometry: B1a cells; format: in vivo, mouse
Experimental: as §1

[3] = system: non-B1a B cells (CD19+CD5−); assay: Nanofiber uptake in i.p. lavage cells, flow cytometry: non-B1a B cells; format: in vivo, mouse; details: for non-B1a B cells that acquired nanofibers: 4 hours after i.p. injection of TAMRA-labeled nanofibers
Experimental: as §1

C57BL/6 mice = assay: One cycle acute DSS-induced colitis, female and male mice; format: in vivo, mouse
Excerpt: DSS-Induced Colitis and Assessment. Before inducing colitis, mice from each treatment group were divided amongst the cages to avoid any cage-related disease effects. This excluded the PBS without DSS (healthy) control mice which remained in their own cage and received normal drinking water for the duration of the experiment. Colitis was induced by administering 2% (w/v) colitis-grade dextran sodium sulfate (MP Biomedicals, 160110) in drinking water. For determination of prophylactic immunization efficacy, mice were immunized i.p. 3 times at days −35, −21 and −7 before colitis induction on Day 0. Chronic colitis was induced via DSS-containing water given for 5 days followed by 5 days of normal drinking water for 3 cycles, resulting in a 30-day model. A shorter, acute DSS-induced colitis model consisting of one cycle of colitis was achieved by giving 5 days of 2% DSS in water followed by 5 days of normal drinking water for a total of 10 days and was also examined in a preventative immunization scenario. Mice were weighed daily and evaluated for the IACUC approved humane endpoint of >30% weight loss as DSS mice regain weight quickly after DSS administration ceases. They were also monitored for occult blood with Hemoccult tape and developer (Beckman Coulter, 63202) and fecal consistency. Disease activity index (DAI) scores were a combination of weight loss (≥100%=0, 90-99%=1, 80-89%=2, […]), occult blood (no blood=0, blood=3), and fecal consistency (hard=0, soft=1, softer=2, runny=3), with a possible daily maximum score of 9. […] At the experimental endpoint, mice were euthanized, and colon lengths were measured from the base of the cecum to the rectum using digital calibrators. To determine immunization efficacy in a therapeutic colitis setting, colitis was first induced by administering one cycle of colitis achieved by 5 days of 2% DSS in water followed by 5 days of normal drinking water for a total of 10 days. Mice were monitored daily as described above until they on average regained their original body weight on day 20. At this point, i.p. immunizations were initiated and given three times over a 4-week period on days 20, 32, and 45, and colitis monitoring was reduced to twice weekly. An additional cycle of colitis was then induced on day 51 via 5 days of 2% DSS in water followed by 5 days of normal drinking water for a total of 10 days with daily monitoring. The entire therapeutic model ended on day 60, and colon lengths were measured as described above.
Spleen Bacteria Measurements. At the conclusion of the DSS experiments, spleens were harvested and weighed followed by homogenization in 500 μL of 0.1% Triton X-100 in sterile 1×PBS using a Tissue Tearer handheld homogenizer (Biospec Products). 25 μL of homogenate solution was then spread on each quarter of culture plates consisting of tryptic soy broth No. 2 (Sigma, 51228) and Difco agar, granulated (BD Biosciences, 214530) in dilutions from 100 to 103. After a 48 hr incubation at 37° C., colony forming units (CFUs) were counted and converted to CFU/g of spleen tissue via the equations: […]
Colon IL-10 Quantification. At the conclusion of some DSS experiments, one half of the harvested mouse colons were flushed with PBS to remove fecal matter and flash frozen in liquid nitrogen. Later, colons were thawed on ice, weighed, and homogenized in 2 μL/mg of Tissue Extraction Reagent I (Thermo Fisher, FNN0071) with a protease inhibitor tablet (Thermo Fisher, A32955) using a Navy Bead Lysis Kit (Next Advance, NAVYE1). The amount of IL-10 in colon homogenate supernatants was then measured using an IL-10 mouse ELISA kit (Invitrogen, 88-7105-22) in accordance with the manufacturer's protocol.

[4] = total TAMRA+ cells categorized by cell type

Substance	macrophages staining positively for nanofibers (macrophages (F4/80+))	thioflavin-T binding (β-sheet fibrillar structure) [1]	DCs that acquired nanofibers [2]	CD86 activation marker on TAMRA+ B1a cells vs non-B1a cells (B1a cells (CD19+CD5+); 4 hours after i.p. injection)	TAMRA MFI of non-B1a B cells ([3]; 4 hours after i.p. injection)	non-B1a B cells that acquired nanofibers [3]	non-B1a B cells among total TAMRA+ cells [3, 4]	TAMRA MFI of B1a cells (B1a cells (CD19+CD5+); 4 hours after i.p. injection)	B1a cells stained positively for nanofibers (B1a cells (CD19+CD5+); 4 hours after i.p. injection of TAMRA-labeled nanofibers)	B1a cells among total TAMRA+ cells (B1a cells (CD19+CD5+); [4])	colon lengths (C57BL/6 mice; both sexes, vs CpG-immunized mice and DSS disease controls)	serum anti-PC IgM, female mice (C57BL/6 mice; female)	spleen colony forming units (CFUs), female mice (C57BL/6 mice; female)	colon IL-10 levels, male mice (C57BL/6 mice; male)	serum anti-PC IgM, male mice (C57BL/6 mice; male)	spleen CFUs / bacterial spread, male mice (C57BL/6 mice; male)	protective efficacy / disease metrics, female mice (C57BL/6 mice; one cycle 2% DSS, 10 days, female)	weight loss and disease activity index scores, male mice (C57BL/6 mice; one cycle 2% DSS, male)	non-B1a B cells in the peritoneal cavity (total cells) ([3]; compared with PC-Q11, Q11, or PBS alone)
C11H22NO6P-CSGSG-QQKFQFQFEQQ-NH2 (C(C11H22NO6P)SGSGQQKFQFQFEQQ-NH2) [PC-Q11, phosphodiester PC-Q11]	almost all macrophages staining positively for nanofibers	bound thioflavin-T (ThT)	about 67%	not seen	selective uptake	over 80%	acquired primarily by non-B1a B cells												
(C11H22NO6P)n-CCCCSGSG-QQKFQFQFEQQ-NH2 (CCCCSGSGQQKFQFQFEQQ-NH2; not fully specified; cysteine pairing not given here; also: phosphorylcholine groups (C11H22NO6P) n=1-4, attachment not placed) [PCM-Q11, linear multi-PC conjugate]	almost all macrophages staining positively for nanofibers	bound thioflavin-T (ThT)	< 30%	selective elevation on B1a cells		< 30%		selective uptake	about 75%	acquired by a substantial B1a cell population	increased colon lengths	undetectable	dramatically decreased spleen colony forming units (CFUs)	not significantly reduced compared to healthy controls	significantly less anti-PC IgM than PCM-Q11/CpG	This trend was also present, though not statistically significant	significant protective efficacy	improved weight loss and disease activity index scores	reduction in non-B1a B cells
